The Ki is a dissociation constant, usually derived from enzyme kinetics or from competition with a known ligand. The term logD denotes lipophilicity at a set pH, counting ionised and neutral species. Lower therefore signals lower lipophilicity.

Cannabinoid receptor 1, sequence (P20272 whole entry): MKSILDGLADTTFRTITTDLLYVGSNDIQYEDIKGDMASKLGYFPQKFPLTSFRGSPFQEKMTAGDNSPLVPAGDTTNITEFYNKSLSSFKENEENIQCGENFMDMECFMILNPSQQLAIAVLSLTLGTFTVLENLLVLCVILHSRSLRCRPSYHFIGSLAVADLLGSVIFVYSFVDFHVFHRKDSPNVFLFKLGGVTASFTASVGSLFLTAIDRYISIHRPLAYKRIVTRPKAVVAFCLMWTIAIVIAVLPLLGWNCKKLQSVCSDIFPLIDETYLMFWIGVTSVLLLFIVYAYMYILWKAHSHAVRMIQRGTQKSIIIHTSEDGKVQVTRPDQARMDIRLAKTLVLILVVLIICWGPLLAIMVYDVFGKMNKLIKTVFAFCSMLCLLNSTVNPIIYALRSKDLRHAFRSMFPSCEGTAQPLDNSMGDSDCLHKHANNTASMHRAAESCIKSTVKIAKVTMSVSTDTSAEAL

One series has as its target Cannabinoid receptor 1 (Rattus norvegicus, UniProt P20272).
Details: not given
Consider `COc1ccc(-c2c(Br)c(C(=O)NN3CCCCC3)nn2-c2ccccc2Cl)cc1`, for which the Ki amounted to 6.2 nM.

The compound `Cc1c(C(=O)NN2CCCCC2)nn(-c2ccc(Cl)cc2Cl)c1-c1ccc(O)cc1` yielded a Ki of 104 nM.

`COc1ccc(-c2c(F)c(C(=O)NN3CCCCC3)nn2-c2ccccc2Cl)cc1` came in with a Ki of 18.2 nM.

Compound `O=C(NN1CCCCC1)c1cc(-c2ccc(Cl)cc2)n(-c2ccc(Cl)cc2Cl)n1` displayed a Ki of 9 nM.

On to `COc1ccc(-c2c(Br)c(C(=O)NN3CCCCCC3)nn2-c2ccc(Cl)cc2Cl)cc1`, for which the affinity, expressed as Ki, was 5.2 nM.

`Cc1c(C(=O)NN2CCCCC2)nn(-c2ccc(Cl)cc2Cl)c1-c1ccc(OC2CCCN2C(=O)OC(C)(C)C)cc1` (centres undefined) returned a Ki of 390 nM.

Take `COc1ccc(-c2c(C)c(C(=O)NN3CCCCC3)nn2-c2ccccc2OC)cc1`: the Ki came to 440 nM.

As for `Cc1c(C(=O)NN2CCCCC2)nn(-c2ccc(Cl)cc2Cl)c1-c1ccc2c(c1)OCO2`, the Ki turned out to be 7.1 nM.

`O=C(NN1CCCCC1)c1nn(-c2ccc(Cl)cc2Cl)c(-c2ccc(Cl)cc2)c1Br` returned an inhibitory constant (Ki) of 1.4 nM.

On to `COc1ccc(-c2c(C)c(C(=O)NN3CCCCC3)nn2-c2ccccc2F)cc1`, for which the affinity, expressed as Ki, was 37.8 nM.

The compound `COc1ccc(-c2c(C)c(C(=O)NN3CCCCC3)nn2-c2ccccc2Cl)cc1` gave a Ki of 8 nM.

`COc1ccc(-c2c(C)c(C(=O)NN3CCCCCC3)nn2-c2ccc(Cl)cc2Cl)cc1` registered a Ki of 7 nM.

As for `Cc1c(C(=O)NN2CCOCC2)nn(-c2ccc(Cl)cc2Cl)c1-c1ccc(I)cc1`, the affinity corresponds to a Ki of 4.5 nM.

System in the next series: not listed separately
Description: Partition coefficient (logD7.4). Conditions: octanol/water, pH 7.4.
On to `O=C(NN1CCCCC1)c1cc(-c2ccc(Cl)cc2)n(-c2ccc(Cl)cc2Cl)n1`, for which the log distribution coefficient (logD) is 5.14.

(Values after ChEMBL document CHEMBL1144888, “Synthesis, structure-activity relationship, and evaluation of SR141716 analogues: development of central cannabinoid receptor ligands with lower lipophilicity” (J Med Chem, 2003).)
